From patent publication US11919905B2, “Substituted benzo[f]imidazo[1,2-a][1,4]diazepines as anesthetics” (HANGZHOU ADAMERCK PHARMLABS INC., priority 2017, dated 2024)

Columns and labels:
Type in all cases: in vivo
[1] = system: ICR mice; experiment: Effective dose and lethal dose of intravenous administration in mice; conditions: single bolus via tail vein, male ICR mice; for minimal effective dose: Mus musculus, iv, read-out: Effective dose (lowest dose causing the righting reflex to disappear)
Method: ICR mice (males, 18-25 g) were randomly grouped and were fast given a single bolus of different doses of test drug via the tail vein, and the lowest dose causing the righting reflex to disappear (effective dose) and the dose causing animal death (lethal dose) were recorded, and the treatment windows (lethal dose/effective dose) were calculated.

[2] = system: ICR mice; experiment: Disappearance of righting reflex in mice induced by drugs (single i.v. bolus); conditions: 100 mg/kg single bolus via tail vein, male ICR mice
Method: After ICR mice (male, 18-25 g) were fast injected with the same dose (100 mg/kg) of the test drug in a single bolus via the tail vein, the incubation period and the duration of disappearance of the righting reflex in mice were recorded. Wherein, the incubation period refers to the time from the start of administration to the disappearance of the animal's righting reflex, and the duration refers to the time from the disappearance of the righting reflex to the recovery.

[3] = system: mice; experiment: Multiple (9 times) i.v. administrations: duration of disappearance of righting reflex in mice; conditions: 20 mg/kg i.v.
Method: Animals in each group were given the corresponding drug solution multiple times by the tail vein injection (i.v.) in accordance with the corresponding group, 0.1 ml per mouse each time, for 9 times of consecutive injections (the administration group mice were injected when the righting reflex was recovered). The durations of each disappearance of righting reflex were recorded, and the data was expressed as an average.

[4] = system: mice; experiment: Single i.v. administration: autonomous activity of mice; conditions: single i.v. 20 mg/kg
Method: Animals in each group were tested for their autonomous activities, each mouse for 10 minutes. After that, the animals in each group were given a single corresponding drug solution by the tail vein injection (i.v.) according to the corresponding group, 0.1 ml per 10 g body weight, and the autonomous activity of the mice was measured immediately after the administration, and the recording time was 50 min. Data were expressed as mean±standard deviation. Wherein, the dosage of propofol was 20 mg/kg.

Structure (SMILES) | minimal effective dose [1] [mg/kg] | Lethal dose (dose causing animal death) [1] [mg/kg] | Treatment window (lethal dose/effective dose) [1] | Duration (time from disappearance of righting reflex to recovery) [2] [min] | Incubation period (time from start of administration to disappearance of righting reflex) [2] [min] | further results
COC(=O)CC[C@@H]1N=C(c2ccccn2)c2cc(F)c(C)cc2-n2c(C)cnc21.Cl [Compound 1-3] | 60 | 280 | 4.67 | 7.20 | 0.30 | –
COC(=O)CC[C@@H]1N=C(c2ccccn2)c2cc(Br)c(C)cc2-n2c(C)cnc21.Cc1ccc(S(=O)(=O)O)cc1 [Compound 1-6] | 100 | 380 | 3.8 | 7.98 | 0.47 | –
COC(=O)CC[C@@H]1N=C(c2ccccn2)c2cc(OC)c(F)cc2-n2c(C)cnc21.Cc1ccc(S(=O)(=O)O)cc1 [Compound 1-15] | 60 | 320 | 5.3 | 9.02 | 0.54 | –
COC(=O)CC[C@@H]1N=C(c2ccccn2)c2cc(OC)c(C)cc2-n2c(C)cnc21.Cc1ccc(S(=O)(=O)O)cc1 [Compound 1-9] | 60 | 260 | 4.3 | 8.77 | 0.63 | –
CCOC(=O)CC[C@@H]1N=C(c2ccccn2)c2cc(CC)c(OC)cc2-n2c(C)cnc21.Cc1ccc(S(=O)(=O)O)cc1 [Compound 1-17] | 80 | 360 | 4.5 | 7.24 | 0.75 | –
COC(=O)CC[C@@H]1N=C(c2ccncc2)c2cc(F)c(C)cc2-n2c(C)cnc21.Cc1ccc(S(=O)(=O)O)cc1 [Compound 1-5] | 60 | 320 | 5.3 | 8.21 | 0.40 | –
CCOC(=O)CC[C@@H]1N=C(c2cccnc2)c2cc(C)c(F)cc2-n2c(C)cnc21.Cc1ccc(S(=O)(=O)O)cc1 [Compound 1-16] | 40 | 280 | 7 | 9.35 | 0.86 | –
COC(=O)CC[C@@H]1N=C(c2ccccn2)c2cc(F)c(C)cc2-n2c(C)cnc21.O=S(=O)(O)c1ccccc1 [Compound 1-1] | 60 | 320 | 5.3 | 7.00 | 0.35 | –
CC(C)c1cccc(C(C)C)c1O [Propofol, reference compound] | – | – | – | – | – | Percentage of extension of righting reflex disappearance ([3]; administration 1): 100%; righting reflex disappearance time ([3]; administration 1): 4.0 min; Percentage of extension of righting reflex disappearance ([3]; administration 2): 144%; righting reflex disappearance time ([3]; administration 2): 5.8 min; Percentage of extension of righting reflex disappearance ([3]; administration 3): 259%; righting reflex disappearance time ([3]; administration 3): 10.4 min; Percentage of extension of righting reflex disappearance ([3]; administration 4): 300%; righting reflex disappearance time ([3]; administration 4): 12.1 min; Percentage of extension of righting reflex disappearance ([3]; administration 5): 292%; righting reflex disappearance time ([3]; administration 5): 11.7 min; Percentage of extension of righting reflex disappearance ([3]; administration 6): 378%; righting reflex disappearance time ([3]; administration 6): 15.2 min; Percentage of extension of righting reflex disappearance ([3]; administration 7): 439%; righting reflex disappearance time ([3]; administration 7): 17.6 min; Percentage of extension of righting reflex disappearance ([3]; administration 8): 404%; righting reflex disappearance time ([3]; administration 8): 16.2 min; Percentage of extension of righting reflex disappearance ([3]; administration 9): 426%; righting reflex disappearance time ([3]; administration 9): 17.1 min; time after administration at which mice were awake [4]: 5 to 10 min; time after administration until autonomic activities basically recovered [4]: 15 min
COC(=O)CC[C@@H]1N=C(c2ccccn2)c2cc(C)c(C)cc2-n2c(C)cnc21.Cc1ccc(S(=O)(=O)O)cc1 [Compound 1-13] | 80 | 320 | 4 | – | – | –
COC(=O)CC[C@@H]1N=C(c2ccccn2)c2cc(F)c(F)cc2-n2c(C)cnc21.Cc1ccc(S(=O)(=O)O)cc1 [Compound 1-11] | 80 | 320 | 4 | 7.28 | 0.53 | –
COC(=O)CC[C@@H]1N=C(c2ccccn2)c2cc(Cl)c(Cl)cc2-n2c(C)cnc21.Cc1ccc(S(=O)(=O)O)cc1 [Compound 1-12] | 60 | 300 | 5 | 8.35 | 0.42 | –
COC(=O)CC[C@@H]1N=C(c2cccnc2)c2cc(F)c(C)cc2-n2c(C)cnc21.Cc1ccc(S(=O)(=O)O)cc1 [Compound 1-4] | 80 | 280 | 3.5 | 9.32 | 0.37 | –
COC(=O)CC[C@@H]1N=C(c2cccnc2)c2cc(F)c(C(F)(F)F)cc2-n2c(C)cnc21.Cc1ccc(S(=O)(=O)O)cc1 [Compound 1-14] | 100 | 360 | 3.6 | 6.30 | 0.58 | –
COC(=O)CC[C@@H]1N=C(c2ccccn2)c2cc([N+](=O)[O-])c(C)cc2-n2c(C)cnc21.Cc1ccc(S(=O)(=O)O)cc1 [Compound 1-7] | 40 | 240 | 6 | 8.39 | 0.60 | –
COC(=O)CC[C@@H]1N=C(c2ccccn2)c2cc(OC)c(OC)cc2-n2c(C)cnc21.Cc1ccc(S(=O)(=O)O)cc1 [Compound 1-10] | 80 | 300 | 3.75 | 7.86 | 0.48 | –
COC(=O)CC[C@@H]1N=C(c2ccccn2)c2cc(C(F)(F)F)c(C)cc2-n2c(C)cnc21.Cc1ccc(S(=O)(=O)O)cc1 [Compound 1-8] | 40 | 260 | 6.5 | 8.60 | 0.55 | –
